From US20250288570A1, “TREATMENT OF NEUROLOGICAL DISORDERS” (Praxis Precision Medicines, Inc., priority 2022, published 2025)
Entries after “also recorded” stand apart in the source; their conditions may differ.

How the values were obtained:
[1] = tested on: psychomotor seizures induced by 6-Hz electrical stimulation in CD-1 mice; test: 6-Hz psychomotor seizure model (32 and 44 mA); format: in vivo, mouse
From the text: The 6-Hz test is a validated model of focal seizures for evaluating the anti-seizure potential of compounds. The 6-Hz seizure model can be performed at different stimulation intensities (32 or 44 mA), with the higher intensity (44 mA) used as a model of pharmacoresistant seizures. The positive control valproate is an approved anti-seizure medicine (ASM).
This study evaluated the efficacy of Compound 1 in attenuating psychomotor seizures induced by 6-Hz electrical stimulation at two different stimulation intensities (32 and 44 mA) in wild-type CD-1 mice. Psychomotor seizures are defined as the expression of at least one of the following behaviors: stun/immobility, forelimb clonus, straub tail or lateral head movement within 30 seconds of the stimulus. Protection is defined as a complete absence of the above behaviors within 30 seconds of the stimulus. Doses of Compound 1 used were 1 mg/kg, 3 mg/kg and 6 mg/kg administered orally. Valproate (600 mg/kg, administered intraperitoneally) was used as a positive control.
Male CD-1 mice (Charles River Laboratories; St. Constant, Quebec, CAN) were used for the study. Body weights at the time the experiment was carried out were 30-40 grams. The mice were group-housed in polycarbonate cages according to standard operating procedures. Animals were maintained on a 12-hour light/12 hour dark cycle, with all experimental activities occurring during the light phase. Food and water were available ad libitum. Mice acclimated to the test facility for at least 72 hours prior to testing.
Treatment was conducted using Compound 1 and 35% 2-hydroxypropyl-β-cyclodextrin (35% HPBCD, used as a negative control). Compound 1 stock solution was prepared fresh each experiment day in 35% HPBCD. […] Valproate was prepared fresh each experiment day in a vehicle of saline and dosed at 10 mL/kg.
Mice were administered vehicle (35% HPBCD), a single dose of Compound 1 (1 mg/kg, 3 mg/kg or 6 mg/kg) or valproate (600 mg/kg). Vehicle and Compound 1 were administered via oral gavage 30 minutes prior to […]. Valproate was administered as an intraperitoneal injection 60 minutes prior to the electrical stimulus.
Immediately prior to conducting the 6-Hz seizure test, a brief neurological assessment was performed. Each animal was visually assessed and received a score from 0 to 3 according to the following scoring system: neurological score of 0 corresponds to a normal status; neurological score of 1 corresponds to a modest decrease in spontaneous activity; neurological score of 2 corresponds to a marked decrease in spontaneous activity; and neurological score of 3 corresponds to loss of righting reflex.
Corneal electrodes moistened with saline (ECT unit 57800; Ugo Basile) were used to deliver the electrical stimulus (6-Hz, 0.2 millisecond pulse width, 3 seconds duration). The current delivered was either 32 mA or 44 mA. Immediately after the electrical stimulus, each mouse was monitored continuously for 30 seconds by an observer blinded to the treatment group. […] Mice were scored for the presence or absence of each seizure behavior, with a maximum total score of 4. […] At the end of the 6-Hz seizure test, plasma and brain samples were collected.
Mice were anesthetized with isoflurane, whole blood was collected via cardiac puncture and brains were harvested. […] Plasma and brain samples were stored at −80° C. and analyzed to determine levels of Compound 1. […]

[2] = tested on: locomotor activity of male CD-1 mice; test: Spontaneous locomotor activity (sLMA) test, Example 8; format: in vivo, mouse
Experimental: The spontaneous locomotor activity (sLMA) test is a validated model for evaluating the potential effects of a compound on motor function. This study evaluated the effect of Compound 1 on locomotor activity of male CD-1 mice. Doses of Compound 1 used were 3 mg/kg, 5.6 mg/kg, 10 mg/kg and 20 mg/kg administered orally (p.o.).
Male CD-1 mice (Vital River, Beijing, China) approximately 6 weeks old were used for the study. Body weights were between 25 g and 35 g at the time of experiment.
Treatment was conducted using Compound 1 and 35% 2-hydroxypropyl-β-cyclodextrin (35% HPBCD, used as a negative control). Compound 1 stock solution was prepared fresh each experiment day in 35% HPBCD and protected from light. The stock solution was diluted with vehicle for lower doses.
The spontaneous locomotor activity (sLMA) test for each study was carried out over three days, with mice from each treatment group tested each day. The treatment groups included mice dosed with vehicle (35% HPBCD) and with Compound 1 at the dose of 3 mg/kg, 5.6 mg/kg, 10 mg/kg and 20 mg/kg. Mice were randomly assigned into one of the treatment groups.
A single dose of Compound 1 (3 mg/kg, 5.6 mg/kg, 10 mg/kg and 20 mg/kg) or vehicle (35% HPBCD) was administered to mice via oral gavage 30 minutes prior to testing. Immediately prior to conducting the sLMA test, a brief neurological assessment was performed. Each animal was visually assessed for sedation and ataxia.
Activity was recorded by overhead cameras and was analyzed offline. Video tracking analysis software was used to determine total distance travelled in millimeters. Distance travelled was also calculated in 5-minute bins.
All statistical analyses were conducted using GraphPad Prism 9.3. Means were combined and standard error was calculated using the Satterthwaite Approximation to combined standard deviations. […] TD50 and TC50 values were calculated from these fit curves.

[3] = target: T1, human Nav1.6 (Homo sapiens, UniProt Q9UQD0); test: Peak INa tonic block (TB), automated patch clamp in HEK cells; format: cell-based; conditions: ratio of peak INa (TB) to persistent INa IC50
T1 construct: HEK-293 cell lines stably expressing human Nav1.6 (NP_055006) were used; expressed in transfected cells
T1 sequence (Q9UQD0 whole entry): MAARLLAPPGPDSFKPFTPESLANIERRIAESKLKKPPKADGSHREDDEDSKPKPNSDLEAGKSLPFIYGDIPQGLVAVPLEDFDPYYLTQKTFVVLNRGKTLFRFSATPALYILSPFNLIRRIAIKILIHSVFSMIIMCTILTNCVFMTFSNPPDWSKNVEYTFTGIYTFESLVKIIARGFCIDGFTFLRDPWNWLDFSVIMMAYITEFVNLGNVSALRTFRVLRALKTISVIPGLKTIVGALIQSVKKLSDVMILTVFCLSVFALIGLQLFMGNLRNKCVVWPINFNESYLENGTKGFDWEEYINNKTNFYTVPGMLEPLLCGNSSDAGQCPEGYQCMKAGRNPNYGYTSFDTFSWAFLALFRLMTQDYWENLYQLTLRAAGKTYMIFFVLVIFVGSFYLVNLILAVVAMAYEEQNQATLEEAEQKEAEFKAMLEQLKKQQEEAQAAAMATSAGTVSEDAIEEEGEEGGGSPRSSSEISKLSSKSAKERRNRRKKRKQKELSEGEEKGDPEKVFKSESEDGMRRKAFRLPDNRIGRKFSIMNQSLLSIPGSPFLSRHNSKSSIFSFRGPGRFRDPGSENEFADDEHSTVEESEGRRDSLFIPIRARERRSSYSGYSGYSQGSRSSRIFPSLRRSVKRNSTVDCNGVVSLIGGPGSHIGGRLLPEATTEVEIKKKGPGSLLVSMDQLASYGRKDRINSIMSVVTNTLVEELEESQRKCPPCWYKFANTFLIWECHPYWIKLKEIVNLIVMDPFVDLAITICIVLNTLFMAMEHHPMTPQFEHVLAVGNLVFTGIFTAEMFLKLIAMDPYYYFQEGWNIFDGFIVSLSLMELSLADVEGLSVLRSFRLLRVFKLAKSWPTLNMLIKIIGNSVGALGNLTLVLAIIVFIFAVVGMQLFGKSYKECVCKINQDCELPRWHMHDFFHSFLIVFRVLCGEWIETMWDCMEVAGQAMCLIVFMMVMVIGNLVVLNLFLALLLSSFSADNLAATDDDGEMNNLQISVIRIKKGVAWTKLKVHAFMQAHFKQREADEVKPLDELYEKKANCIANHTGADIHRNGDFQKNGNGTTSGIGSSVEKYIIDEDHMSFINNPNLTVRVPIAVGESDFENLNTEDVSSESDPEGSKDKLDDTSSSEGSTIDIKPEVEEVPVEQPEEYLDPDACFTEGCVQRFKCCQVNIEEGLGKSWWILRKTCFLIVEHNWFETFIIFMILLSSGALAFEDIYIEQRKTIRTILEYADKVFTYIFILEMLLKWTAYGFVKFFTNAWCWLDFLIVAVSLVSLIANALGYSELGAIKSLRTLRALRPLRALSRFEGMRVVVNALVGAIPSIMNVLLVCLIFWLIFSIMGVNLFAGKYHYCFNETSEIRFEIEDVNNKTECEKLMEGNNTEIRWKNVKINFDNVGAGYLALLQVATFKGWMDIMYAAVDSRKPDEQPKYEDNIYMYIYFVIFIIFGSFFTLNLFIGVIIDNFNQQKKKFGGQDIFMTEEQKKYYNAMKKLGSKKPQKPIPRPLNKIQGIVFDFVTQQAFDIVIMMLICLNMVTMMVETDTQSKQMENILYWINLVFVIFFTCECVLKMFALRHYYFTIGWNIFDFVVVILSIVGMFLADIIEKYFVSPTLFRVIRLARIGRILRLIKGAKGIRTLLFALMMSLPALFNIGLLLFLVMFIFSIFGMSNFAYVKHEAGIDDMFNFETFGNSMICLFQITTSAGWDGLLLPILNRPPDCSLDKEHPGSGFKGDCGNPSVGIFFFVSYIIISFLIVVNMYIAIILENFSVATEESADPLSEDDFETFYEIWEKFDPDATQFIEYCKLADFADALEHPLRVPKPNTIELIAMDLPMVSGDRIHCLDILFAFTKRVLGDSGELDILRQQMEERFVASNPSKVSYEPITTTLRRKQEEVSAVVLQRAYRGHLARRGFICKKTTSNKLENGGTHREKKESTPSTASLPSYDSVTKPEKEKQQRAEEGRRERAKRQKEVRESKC

Question: With CCOC(F)(F)c1nnc2ccc(-c3cnc(OCC(F)(F)F)c(F)c3)cn12 [Compound 1] as the molecule, how does the “seizure score (in words)” value ([1]; 6 mg/kg p.o., 32 and 44 mA) read?
Answer: significantly reduced the seizure score; also recorded: reduced seizure scores compared to vehicle

Question: And the “incidence of seizures (in words)” value ([1]; 6 mg/kg p.o., 32 mA)?
Answer: significantly reduced the incidence of seizures

Question: What about the neurological scores ([1]; any dose of Compound 1 (1, 3, 6 mg/kg)) of the same molecule?
Answer: all neurological scores were zero; also recorded: normal

Question: And the “sedation or ataxia (in words)” value ([2]; 3 mg/kg and 5.6 mg/kg)?
Answer: No sedation or ataxia was observed

Question: What about the “mice with sedation and/or ataxia” value ([2]; 10 mg/kg) of the same molecule?
Answer: five

Question: And the “mice with sedation and/or ataxia” value ([2]; 20 mg/kg)?
Answer: eight

Question: And the “sLMA TD50” value ([2]; p.o., distance travelled)?
Answer: 10.4 mg/kg

Question: And the “Peak INa TB Ratio to Pers. INa” value [3]?
Answer: 68
